Test results taken from the supplement of paper PMC10307832.

Experiments:
Test in all cases: relative viability (nuclei count vs DMSO), 5 days (fraction); higher = more cells survive
[1] = system: NCI-H3122
How it was run: (§1)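 Relative viability is defined as nuclei in treated wells over nuclei in vehicle wells. Duplicate plates were run and medians reported. Lung cancer cell lines in 1536-well plates were dosed by pin tool one day after seeding, with one drug or with a fixed anchor-drug dose plus five library-drug doses (not always all listed) in √10 steps, and nuclei were counted after 5 days.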

[2] = system: NCI-H661
How it was run: as §1

[3] = system: ChaGo-K-1
How it was run: as §1

[4] = system: H3255
How it was run: as §1

[5] = system: NCI-H2228
How it was run: as §1

[6] = system: NCI-H2126
How it was run: as §1

[7] = system: SW 900
How it was run: as §1

[8] = system: SK-LU-1
How it was run: as §1

[9] = system: NCI-H650
How it was run: as §1

[10] = system: EKVX
How it was run: as §1

[11] = system: NCI-H23
How it was run: as §1

[12] = system: NCI-H596
How it was run: as §1

[13] = system: HCC-827
How it was run: as §1

[14] = system: NCI-H2405
How it was run: as §1

[15] = system: LCLC-103H
How it was run: as §1

[16] = system: LOU-NH91
How it was run: as §1

[17] = system: COR-L 105
How it was run: as §1

[18] = system: NCI-H727
How it was run: as §1

[19] = system: PC-3 [JPC-3]
How it was run: as §1

[20] = system: 201T
How it was run: as §1

[21] = system: NCI-H1975
How it was run: as §1

[22] = system: HOP-62
How it was run: as §1

[23] = system: HARA
How it was run: as §1

## CCNC(=O)c1noc(-c2cc(C(C)C)c(O)cc2O)c1-c1ccc(CN2CCOCC2)cc1 [Luminespib] + CC(=O)Nc1cccc(-n2c(=O)n(C3CC3)c(=O)c3c(Nc4ccc(I)cc4F)n(C)c(=O)c(C)c32)c1 [Trametinib] (partner 0.02 µM)
[1]; first compound 0.002 µM
  relative viability: 0.179
[1]; first compound 0.006325 µM
  relative viability: 0.27
[1]; first compound 0.02 µM
  relative viability: 0.141
[1]; first compound 0.06325 µM
  relative viability: 0.242
[1]; first compound 0.2 µM
  relative viability: 0.186
[2]; first compound 0.002 µM
  relative viability: 0.56
[2]; first compound 0.006325 µM
  relative viability: 0.553
[2]; first compound 0.02 µM
  relative viability: 0.382
[2]; first compound 0.06325 µM
  relative viability: 0.265
[2]; first compound 0.2 µM
  relative viability: 0.256
[3]; first compound 0.002 µM
  relative viability: 0.831
[3]; first compound 0.006325 µM
  relative viability: 0.873
[3]; first compound 0.02 µM
  relative viability: 0.884
[3]; first compound 0.06325 µM
  relative viability: 0.861
[3]; first compound 0.2 µM
  relative viability: 0.892
[4]; first compound 0.002 µM
  relative viability: 0.549
[4]; first compound 0.02 µM
  relative viability: 0.405
[4]; first compound 0.06325 µM
  relative viability: 0.386
[4]; first compound 0.2 µM
  relative viability: 0.278
[5]; first compound 0.002 µM
  relative viability: 0.512
[5]; first compound 0.006325 µM
  relative viability: 0.336
[5]; first compound 0.02 µM
  relative viability: 0.133
[5]; first compound 0.06325 µM
  relative viability: 0.0941
[5]; first compound 0.2 µM
  relative viability: 0.106
[6]; first compound 0.002 µM
  relative viability: 0.608
[6]; first compound 0.006325 µM
  relative viability: 0.608
[6]; first compound 0.06325 µM
  relative viability: 0.667
[6]; first compound 0.2 µM
  relative viability: 0.599
[7]; first compound 0.002 µM
  relative viability: 0.837
[7]; first compound 0.006325 µM
  relative viability: 0.919
[7]; first compound 0.02 µM
  relative viability: 0.659
[7]; first compound 0.06325 µM
  relative viability: 0.165
[7]; first compound 0.2 µM
  relative viability: 0.131
[8]; first compound 0.002 µM
  relative viability: 0.478
[8]; first compound 0.006325 µM
  relative viability: 0.371
[8]; first compound 0.02 µM
  relative viability: 0.314
[8]; first compound 0.06325 µM
  relative viability: 0.178
[8]; first compound 0.2 µM
  relative viability: 0.185
[9]; first compound 0.002 µM
  relative viability: 1.06
[9]; first compound 0.006325 µM
  relative viability: 0.881
[9]; first compound 0.02 µM
  relative viability: 0.629
[9]; first compound 0.06325 µM
  relative viability: 0.262
[9]; first compound 0.2 µM
  relative viability: 0.086
[10]; first compound 0.002 µM
  relative viability: 0.391
[10]; first compound 0.006325 µM
  relative viability: 0.326
[10]; first compound 0.02 µM
  relative viability: 0.219
[10]; first compound 0.06325 µM
  relative viability: 0.165
[10]; first compound 0.2 µM
  relative viability: 0.122
[11]; first compound 0.002 µM
  relative viability: 0.397
[11]; first compound 0.006325 µM
  relative viability: 0.424
[11]; first compound 0.02 µM
  relative viability: 0.333
[11]; first compound 0.06325 µM
  relative viability: 0.13
[11]; first compound 0.2 µM
  relative viability: 0.156
[12]; first compound 0.002 µM
  relative viability: 0.873
[12]; first compound 0.006325 µM
  relative viability: 0.835
[12]; first compound 0.02 µM
  relative viability: 0.743
[12]; first compound 0.06325 µM
  relative viability: 0.806
[12]; first compound 0.2 µM
  relative viability: 0.646
[13]; first compound 0.002 µM
  relative viability: 0.533
[13]; first compound 0.006325 µM
  relative viability: 0.506
[13]; first compound 0.02 µM
  relative viability: 0.279
[13]; first compound 0.06325 µM
  relative viability: 0.154
[13]; first compound 0.2 µM
  relative viability: 0.15
[14]; first compound 0.002 µM
  relative viability: 0.669
[14]; first compound 0.02 µM
  relative viability: 0.515
[14]; first compound 0.06325 µM
  relative viability: 0.252
[14]; first compound 0.2 µM
  relative viability: 0.202
[15]; first compound 0.002 µM
  relative viability: 0.625
[15]; first compound 0.006325 µM
  relative viability: 0.657
[15]; first compound 0.02 µM
  relative viability: 0.699
[15]; first compound 0.06325 µM
  relative viability: 0.693
[15]; first compound 0.2 µM
  relative viability: 0.689
[16]; first compound 0.002 µM
  relative viability: 0.807
[16]; first compound 0.006325 µM
  relative viability: 0.775
[16]; first compound 0.02 µM
  relative viability: 0.6
[16]; first compound 0.06325 µM
  relative viability: 0.417
[16]; first compound 0.2 µM
  relative viability: 0.385
[17]; first compound 0.002 µM
  relative viability: 0.46
[17]; first compound 0.006325 µM
  relative viability: 0.43
[17]; first compound 0.02 µM
  relative viability: 0.384
[17]; first compound 0.06325 µM
  relative viability: 0.265
[17]; first compound 0.2 µM
  relative viability: 0.278
[18]; first compound 0.002 µM
  relative viability: 0.422
[18]; first compound 0.006325 µM
  relative viability: 0.397
[18]; first compound 0.02 µM
  relative viability: 0.404
[18]; first compound 0.06325 µM
  relative viability: 0.247
[18]; first compound 0.2 µM
  relative viability: 0.253
[19]; first compound 0.002 µM
  relative viability: 0.75
[19]; first compound 0.006325 µM
  relative viability: 0.682
[19]; first compound 0.02 µM
  relative viability: 0.517
[19]; first compound 0.06325 µM
  relative viability: 0.505
[19]; first compound 0.2 µM
  relative viability: 0.457
[20]; first compound 0.002 µM
  relative viability: 0.667
[20]; first compound 0.006325 µM
  relative viability: 0.706
[20]; first compound 0.02 µM
  relative viability: 0.675
[20]; first compound 0.06325 µM
  relative viability: 0.67
[20]; first compound 0.2 µM
  relative viability: 0.674
[21]; first compound 0.002 µM
  relative viability: 0.349
[21]; first compound 0.006325 µM
  relative viability: 0.334
[21]; first compound 0.02 µM
  relative viability: 0.168
[21]; first compound 0.06325 µM
  relative viability: 0.107
[21]; first compound 0.2 µM
  relative viability: 0.118
[22]; first compound 0.002 µM
  relative viability: 0.37
[22]; first compound 0.006325 µM
  relative viability: 0.351
[22]; first compound 0.02 µM
  relative viability: 0.311
[22]; first compound 0.06325 µM
  relative viability: 0.309
[22]; first compound 0.2 µM
  relative viability: 0.183
[23]; first compound 0.002 µM
  relative viability: 0.667
[23]; first compound 0.006325 µM
  relative viability: 0.614
[23]; first compound 0.02 µM
  relative viability: 0.471
[23]; first compound 0.06325 µM
  relative viability: 0.121
[23]; first compound 0.2 µM
  relative viability: 0.141
